Measured values published in patent US5780254A, “Method for detection of herbicides” (Sandoz Ltd, priority 1996, dated 1998).
Read-outs that look alike come from different tables or passages of the source.

Experiments:
[1] = target: T1, ADSS from wheat germ (Triticum aestivum, UniProt O24396); experiment: ADSS enzyme assay, wheat germ ADSS; type: biochemical
T1 construct: from tissue
Procedure: ADSS is obtained from 4-5 day old, etiolated seedlings of Zea mays. Seedlings are homogenized in a Waring blender with an equal volume (grams of tissue=mls of buffer) of extraction buffer containing 50 mM EPPS, pH 7.5, 5 mM MgCl2, 0.1 mM EDTA, 5 mM sodium bisulfite, 5 mM DTT, 0.1 mM phenylmethanesulfonyl fluoride and 10% glycerol. The extract is expressed through Miracloth (Calbiochem, La Jolla, Calif.) sandwiched between layers of cheesecloth. To precipitate phenolics and nucleic acids, 0.2 to 0.4% w/v protamine sulfate is added to the extract. The extract is stirred for 30 minutes, and then centrifuged at 45,000×G for 60 minutes. The resulting supernatant is fractionated with ammonium sulfate. Proteins are retained which precipitate at concentrations of ammonium sulfate greater than 45% saturation, but less than 55% saturation. Similar methods are used to isolate ADSS from wheat germ, E. coli and rat liver. ADSS activity is further purified by subjecting the preparation to DEAE cellulose chromatography. The column is equilibrated with chromatography buffer consisting of 50 mM EPPS, pH 7.5, 10% glycerol, 0.1 mM EDTA, 5 mM MgCl2 and 1 mM DTT. After loading the enzyme preparation, the column is washed with two bed volumes of the chromatography buffer, then eluted with a linear, 10-bed-volume gradient of 0 to 0.4M KCl dissolved in the same buffer. The peak of ADSS activity elutes at a KCl concentration of about 150 mM. […]
(§1) ADSS is assayed by anion exchange HPLC and by a continuous spectrophotometric assay. […] The column eluate is monitored at 270 nm using a Perkin-Elmer LC 480 diode array detector. Integrated peaks are quantified from standard curves. Identity of the products of the ADSS reaction, GDP and adenylosuccinate, are determined by comparing their retention times and spectra with those of authentic standards, purchased from Sigma Chemical Co.
(§2) For the spectrophotometric assay, reaction mixtures are the same as above, except that the volume is doubled. […] This method of quantification was validated using the HPLC method.

[2] = test system: adenylosuccinate lyase (ASL); experiment: Assay of adenylosuccinate lyase (ASL); type: biochemical, Zea mays; details: 1 mM concentration (data not shown)
Procedure: ASL is obtained from three day old, etiolated seedlings of Zea mays (maize). Seedlings are homogenized in a Waring blender with an equal volume (grams of tissue=mls of buffer) of 20 mM potassium phosphate buffer (KP buffer) containing 1 mM DTT. The slurry is then filtered through a cheese cloth and the filtrate subjected to 100,000×g centrifugation for 60 minutes. The clear supernatant is used for assaying ASL activity.
A typical reaction mixture in 1 mL contains 100-300 μL of ASL and 0.15 mM adenylosuccinate (30 μL of a 5 mM solution in KP buffer), the rest being KP buffer. Disappearance of absorbance at 280 nm is followed as a function of time to determine the rate of ASL activity. Inhibitors when needed are included to a final concentration of 1 mM in the assay mixture to observe the effect on the ASL activity. Compounds hydantocidin, N-acetylhydantocidin, NAP-H and hadacidin had no effect on the rate of ASL activity at 1 mM concentration (data not shown).

[3] = test system: Arabidopsis seeds; experiment: Arabidopsis reversal assay with antidote compounds; type: in vivo; details: for Growth, % of Control: probe compound at 1.5× lethal concentration; for growth without the antidote (in words): probe compound alone, no antidote
Procedure: The solutions are filter sterilized prior to addition. FIG. 4 represents a typical set up in a reversion assay for discovering inhibitors of AMP biosynthesis.
The left side (columns 1-3) of the 24-well microtiter plate is designed for controls, and the right side (columns 4-6) are designated for one probe compound. […] Rows B,C and D are supplemented with three doses of an antidote for the control and probe compound. […] The three doses are 50,100 and 150 μl respectively.
Forty ml of Arabidopsis growth media as described in Example 1 is sterilized and allowed to cool to about 45° C. A probe compound (at 1.5× lethal concentration) is added to columns 4 through 6 (right half of the plate). Media is distributed at 1.0 ml per well to all wells. Sterile seeds are added to each well as described above. As in Example 1, the plate is incubated and growth is scored.

[4] = target: T2, ADSS from rat liver (Rattus norvegicus, UniProt D4AEP0); experiment: ADSS enzyme assay, rat liver ADSS; type: biochemical; details: rat liver ADSS (FIG. 6)
T2 construct: from tissue; host or cells: rat liver
Procedure: (§3) ADSS is obtained from 4-5 day old, etiolated seedlings of Zea mays. Seedlings are homogenized in a Waring blender with an equal volume (grams of tissue=mls of buffer) of extraction buffer containing 50 mM EPPS, pH 7.5, 5 mM MgCl2, 0.1 mM EDTA, 5 mM sodium bisulfite, 5 mM DTT, 0.1 mM phenylmethanesulfonyl fluoride and 10% glycerol. The extract is expressed through Miracloth (Calbiochem, La Jolla, Calif.) sandwiched between layers of cheesecloth. To precipitate phenolics and nucleic acids, 0.2 to 0.4% w/v protamine sulfate is added to the extract. The extract is stirred for 30 minutes, and then centrifuged at 45,000×G for 60 minutes. The resulting supernatant is fractionated with ammonium sulfate. Proteins are retained which precipitate at concentrations of ammonium sulfate greater than 45% saturation, but less than 55% saturation. Similar methods are used to isolate ADSS from wheat germ, E. coli and rat liver. ADSS activity is further purified by subjecting the preparation to DEAE cellulose chromatography. The column is equilibrated with chromatography buffer consisting of 50 mM EPPS, pH 7.5, 10% glycerol, 0.1 mM EDTA, 5 mM MgCl2 and 1 mM DTT. After loading the enzyme preparation, the column is washed with two bed volumes of the chromatography buffer, then eluted with a linear, 10-bed-volume gradient of 0 to 0.4M KCl dissolved in the same buffer. The peak of ADSS activity elutes at a KCl concentration of about 150 mM. Fractions containing activity are pooled and the proteins concentrated by ultrafiltration. At this stage, the enzyme is suitable for high capacity screening tests that are designed to discover inhibitory compounds. Alternatively, hydrophobic interaction chromatography can be used instead of DEAE-cellulose. This material is optionally further purified by passage through a column of Sephadex G-75 equilibrated with the chromatography buffer described above. The peak of ADSS activity elutes at a retention volume corresponding to a molecular weight of approximately 50,000 Da.
as §1, with “assay. For the former, enzyme is diluted appropriately with 50 mM EPPS, pH 8.3, 10% ethylene glycol, 10 mM potassium phosphate and 1 mM MgCl2 to a volume of 92 μL.” for “assay.”
as §2

[5] = test system: Arabidopsis seeds; experiment: Arabidopsis bioassay, determination of the lethal concentration (LC 90); details: read-out: lethal concentration (LC 90)
[6] = target: T3, adenylosuccinate synthetase (ADSS) isolated from maize (Zea mays, UniProt O24578); experiment: ADSS enzyme assay (HPLC and spectrophotometric), maize ADSS; type: biochemical
T3 construct: ADSS is obtained from 4-5 day old, etiolated seedlings of Zea mays; from tissue; host or cells: 4-5 day old etiolated maize seedlings
Procedure: as §3
ADSS is assayed by anion exchange HPLC and by a continuous spectrophotometric assay. For the former, enzyme is diluted appropriately with 50 mM EPPS, pH 8.3, 10% ethylene glycol, 10 mM potassium phosphate and 1 mM MgCl2 to a volume of 92 μL. […] Reactions are stopped by adding 1 μL of 4N HCl. 95 μL of the reaction mixture is injected to a Hamilton PRP-X100 column equilibrated with 3% acetonitrile. Reactants and products are eluted with a convex gradient (Curve=-2) to 6% 1M potassium phosphate, pH 7, and 12% 2M KCl delivered during a span of 30 min by a Perkin-Elmer 410 BIO pump. The column eluate is monitored at 270 nm using a Perkin-Elmer LC 480 diode array detector. Integrated peaks are quantified from standard curves. Identity of the products of the ADSS reaction, GDP and adenylosuccinate, are determined by comparing their retention times and spectra with those of authentic standards, purchased from Sigma Chemical Co.
For the spectrophotometric assay, reaction mixtures are the same as above, except that the volume is doubled. […] The optical density increases as AS is formed. […] This method of quantification was validated using the HPLC method.

[7] = target: T4, ADSS from E. coli (Escherichia coli, UniProt P0A7D4); experiment: ADSS enzyme assay, E. coli ADSS; type: biochemical; details: E. coli ADSS (FIG. 6)
T4 construct: endogenous in cells; host or cells: E. coli
Procedure: as §3
as §1, with “assay. For the former, enzyme is diluted appropriately with 50 mM EPPS, pH 8.3, 10% ethylene glycol, 10 mM potassium phosphate and 1 mM MgCl2 to a volume of 92 μL.” for “assay.”
as §2

[8] = background statement; cited from earlier work
[9] = test system: glutamine synthetase; details: background statement; cited from earlier work
[10] = antidote Adenosine + Guanosine 0.5-5.0 mM
[11] = antidote Cytidine + Uridine 0.5-5.0 mM
[12] = antidote Hypoxanthine 0.5-5.0 mM
[13] = concentration causing 90% or greater growth inhibition vs control, 7 days, about 28° C.

T4 sequence (P0A7D4 2-432): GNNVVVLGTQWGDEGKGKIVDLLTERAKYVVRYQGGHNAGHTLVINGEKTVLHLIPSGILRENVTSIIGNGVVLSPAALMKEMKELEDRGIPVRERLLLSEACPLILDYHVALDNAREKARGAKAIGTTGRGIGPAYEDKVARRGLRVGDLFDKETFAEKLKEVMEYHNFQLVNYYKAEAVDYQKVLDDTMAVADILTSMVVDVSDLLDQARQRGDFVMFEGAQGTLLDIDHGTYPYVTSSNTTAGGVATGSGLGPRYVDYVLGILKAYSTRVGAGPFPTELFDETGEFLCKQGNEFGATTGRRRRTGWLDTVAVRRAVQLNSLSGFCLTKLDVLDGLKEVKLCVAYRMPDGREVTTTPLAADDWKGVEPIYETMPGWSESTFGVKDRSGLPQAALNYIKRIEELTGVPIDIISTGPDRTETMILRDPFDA
T2 sequence (D4AEP0 1-456): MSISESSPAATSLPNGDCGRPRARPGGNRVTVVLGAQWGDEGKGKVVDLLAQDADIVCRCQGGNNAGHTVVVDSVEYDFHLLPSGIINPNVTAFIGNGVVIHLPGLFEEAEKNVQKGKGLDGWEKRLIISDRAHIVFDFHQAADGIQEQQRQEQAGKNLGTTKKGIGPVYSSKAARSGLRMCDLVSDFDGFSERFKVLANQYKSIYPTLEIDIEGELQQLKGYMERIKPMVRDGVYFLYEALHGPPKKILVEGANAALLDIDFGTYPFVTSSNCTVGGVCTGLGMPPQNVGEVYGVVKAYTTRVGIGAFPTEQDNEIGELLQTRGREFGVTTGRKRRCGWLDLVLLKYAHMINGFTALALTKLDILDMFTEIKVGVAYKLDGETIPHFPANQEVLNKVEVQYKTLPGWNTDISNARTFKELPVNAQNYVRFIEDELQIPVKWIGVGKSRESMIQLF
T3 sequence (O24578 45-484): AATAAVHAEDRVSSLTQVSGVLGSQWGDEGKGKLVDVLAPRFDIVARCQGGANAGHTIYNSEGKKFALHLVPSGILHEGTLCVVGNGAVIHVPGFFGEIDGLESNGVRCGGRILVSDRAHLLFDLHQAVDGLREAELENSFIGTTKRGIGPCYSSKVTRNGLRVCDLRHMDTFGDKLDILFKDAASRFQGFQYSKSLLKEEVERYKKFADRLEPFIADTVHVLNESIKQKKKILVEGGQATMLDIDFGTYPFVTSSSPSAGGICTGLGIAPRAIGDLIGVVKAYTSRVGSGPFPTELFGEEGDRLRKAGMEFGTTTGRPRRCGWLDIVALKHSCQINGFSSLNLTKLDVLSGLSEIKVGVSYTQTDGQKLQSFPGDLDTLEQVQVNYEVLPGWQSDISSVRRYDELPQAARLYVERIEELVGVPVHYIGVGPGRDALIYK
T1 sequence (O24396 whole entry): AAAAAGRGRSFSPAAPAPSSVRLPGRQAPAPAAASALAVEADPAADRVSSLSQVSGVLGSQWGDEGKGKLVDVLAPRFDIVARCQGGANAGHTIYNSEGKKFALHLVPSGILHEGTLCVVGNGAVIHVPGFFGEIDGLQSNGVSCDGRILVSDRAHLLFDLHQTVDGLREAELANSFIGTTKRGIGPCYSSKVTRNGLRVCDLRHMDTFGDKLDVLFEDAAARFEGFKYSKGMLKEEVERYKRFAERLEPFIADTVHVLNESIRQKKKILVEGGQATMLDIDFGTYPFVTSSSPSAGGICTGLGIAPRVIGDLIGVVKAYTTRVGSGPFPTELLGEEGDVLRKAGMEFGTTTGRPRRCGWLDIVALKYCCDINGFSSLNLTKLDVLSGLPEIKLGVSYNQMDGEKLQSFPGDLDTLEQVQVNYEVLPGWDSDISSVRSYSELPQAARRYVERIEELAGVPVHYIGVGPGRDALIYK

Row | Molecule | effect on the rate of ASL activity [2] | Growth, % of Control ([3]; No antidote, 0 mM) | Growth, % of Control ([3]; antidote ADP 0.5-5.0 mM) | Growth, % of Control ([3]; antidote AMP 0.5-5.0 mM) | Growth, % of Control ([3]; antidote ATP 0.5-5.0 mM) | Growth, % of Control ([3]; antidote Adenine 0.5-5.0 mM) | Growth, % of Control ([3]; antidote Adenosine 0.5-5.0 mM) | Growth, % of Control [3, 10] | Growth, % of Control [3, 11] | Growth, % of Control ([3]; antidote Guanine 0.5-5.0 mM) | Growth, % of Control ([3]; antidote Guanosine 0.5-5.0 mM) | Growth, % of Control [3, 12] | Growth, % of Control ([3]; antidote IMP 0.5-5.0 mM) | growth without the antidote (in words) [3] | IC90 [5, 13] | inhibition of ADSS (in words) [4] | inhibition of ADSS (in words) [7] | also measured
1 | 5'-Phospho-N-acetyl-hydantocidin [NAP-H] | no effect | 0% | 100% | 100% | 40% | 65% | 80-100% | 80% | 0% | 0% | 0% | 0% | 5% | Growth is not observed | ~8 µM | – | – | inhibition of ADSS (in words) ([1]; 10 μM, crude (desalted) extract from wheat germ, HPLC assay (FIG. 5)): Inhibition of ADSS; product formation by ADSS ([1]; compound at 100 μM, wheat germ ADSS (not shown)): Product is not formed; product formation by ADSS ([4]; compound at 100 μM): Product is not formed; inhibition of ADSS (in words) ([6]; 5 μM, spectrophotometric assay): is confirmed; product formation by ADSS ([6]; compound at 100 μM, maize ADSS (not shown)): Product is not formed; reversibility of ADSS inhibition ([6]; enzyme incubated with 4 μM for 10 min, then Sephadex G-25): inhibition is reversible; time course of ADSS inhibition ([6]; spectrophotometric assay (FIG. 7, FIG. 8)): Inhibition is initially weak, but becomes greater; product formation by ADSS ([7]; compound at 100 μM): Product is not formed
2 | N-acetyl hydantocidin | no effect | 0% | 100% | 100% | 40% | 60% | 80-100% | 80% | 0% | 0% | 0% | 0% | 5% | Growth is not observed | ~12 µM | neither the E. coli nor the rat liver ADSS are inhibited | neither the E. coli nor the rat liver ADSS are inhibited | –
3 | O=C1NC(=O)C2(N1)O[C@H](CO)[C@@H](O)[C@H]2O (single isomer, unassigned) [hydantocidin, Hydantocidin] | no effect | 0% | 100% | 100% | 40% | 60% | 80-100% | 80% | 0% | 0% | 0% | 0% | 5% | Growth is not observed | – | neither the E. coli nor the rat liver ADSS are inhibited | neither the E. coli nor the rat liver ADSS are inhibited | reversal of growth inhibition by aromatic amino acids (in words) [8]: not reversed; reversal of growth inhibition (in words) ([3]; antidote IMP, doses 50, 100 and 150 μl): did not reverse growth inhibition; reversal of growth inhibition (in words) ([3]; antidotes adenosine and AMP, rows B and C, wells 4 through 6): Complete growth is observed; reversal of inhibition at the lethal concentration (in words) ([3]; in the presence of AMP, ADP or adenine): completely reversed; inhibition of glutamine synthetase (in words) [9]: not inhibited; IC90 ([5]; Arabidopsis thaliana, 168 h): ~2 µM
